# According to US7183320B2, “Benzoylsulfonamides and sulfonylbenzamidines for use as antitumour agents” (Eli Lilly and Company, priority 2002, dated 2007):
# Tested on: HCT116 colon carcinoma cells
# Experiment: HCT116 colon carcinoma cell growth inhibition (WST-1, 72 hr)
# Type: cell-based, human
# Conditions: 72 hr exposure
# Description: HCT116 Colon Carcinoma Cell Growth Inhibition
# HCT116 colon carcinoma cells were grown monolayer culture in RPMI 1640 medium supplemented with 10% fetal bovine serum and 1% penicillin-streptomycin (GibcoBRL, Grand Island, N.Y.). HCT116 cells in exponential growth phase were exposed to various concentrations of the test compounds at 37° C. for 72 hr in 5% carbon dioxide/air. After exposure to the agent, the cells were washed with 0.9% phosphate buffered saline. Growth inhibition was determined using WST-1 cell proliferation reagent as described above. The results are expressed as the growth fraction of treated cells compared with control cultures. Representative compounds of the present invention were tested for efficacy against the human colon HCT116 tumor cells.
row,Structure (SMILES),IC50 [µM]
1,"COC(=O)c1ccc(S(=O)(=O)NC(=O)c2ccc(Cl)cc2Br)cc1 [Example 30, N-[2-bromo-4-chlorobenzoyl]-4-methyoxycarbonyl-phenylsulfonamide]",10.1

# Same assay, conditions: Homo sapiens, HCT-116, 72 hr exposure
row,Structure (SMILES),IC50 [µM]
1,"O=C(NS(=O)(=O)c1cccc(Br)c1)c1ccc(Cl)cc1Cl [Example 1, N-[2,4-dichlorobenzoyl]-3-bromophenylsulfonamide]",4.2
2,"COc1ccc(S(=O)(=O)NC(=O)c2ccc(Cl)cc2Cl)cc1 [Example 3, N-[2,4-dichlorobenzoyl]-4-methoxyphenylsulfonamide]",2.5
3,"CC(C)(C)c1ccc(S(=O)(=O)NC(=O)c2ccc(Br)cc2Br)cc1 [Example 5, N-[2,4-dibromobenzoyl]-4-tert-butylphenylsulfonamide]",3.8
4,"O=C(NS(=O)(=O)c1ccc(Cl)cc1)c1ccc(Br)cc1Br [Example 6, N-[2,4-dibromobenzoyl]-4-chlorophenylsulfonamide]",4
5,"O=C(NS(=O)(=O)c1ccc(F)c(Cl)c1)c1ccc(Cl)cc1Cl [Example 9, N-[2,4-dichlorobenzoyl]-3-chloro-4-fluorophenylsulfonamide]",1.7
6,"O=C(NS(=O)(=O)c1ccc(Cl)cc1)c1ccc([N+](=O)[O-])cc1Cl [Example 10, N-[2-chloro-4-nitrobenzoyl]-4-chlorophenylsulfonamide]",12.1
7,"O=C(NS(=O)(=O)c1ccccc1)c1ccc(Br)cc1Cl [Example 11, N-[2-chloro-4-bromobenzoyl]-phenylsulfonamide]",5.5
8,"O=C(NS(=O)(=O)c1ccc(Br)cc1)c1ccc(Br)cc1Cl [Example 14, N-[2-chloro-4-bromobenzoyl]-4-bromophenylsulfonamide]",40
9,"O=C(NS(=O)(=O)c1ccc(Br)cc1)c1ccc([N+](=O)[O-])cc1Cl [Example 15, N-[2-chloro-4-nitrobenzoyl]-4-bromophenylsulfonamide]",10.4
10,"O=C(NS(=O)(=O)c1ccc(F)cc1)c1ccc(Br)cc1Cl [Example 16, N-[2-chloro-4-bromobenzoyl]-4-fluorophenylsulfonamide]",3.8
11,"O=C(NS(=O)(=O)c1cccc(Cl)c1)c1ccc(Br)cc1Cl [Example 17, N-[2-chloro-4-bromobenzoyl]-3-chlorophenylsulfonamide]",15.8
12,"COc1ccc(S(=O)(=O)NC(=O)c2ccc(Br)cc2Cl)cc1 [Example 18, N-[2-chloro-4-bromobenzoyl]-4-methoxyphenylsulfonamide]",9.3
13,"COc1ccc(S(=O)(=O)NC(=O)c2ccc([N+](=O)[O-])cc2Cl)cc1 [Example 20, N-[2-chloro-4-nitrobenzoyl]-4-methoxyphenylsulfonamide]",2.4
14,"O=C(NS(=O)(=O)c1ccc(Cl)c(Cl)c1)c1ccc([N+](=O)[O-])cc1Cl [Example 21, N-[2-chloro-4-nitrobenzoyl]-3,4-dichlorophenyl-sulfonamide]",30.4
15,"Cc1ccc(S(=O)(=O)NC(=O)c2ccc(Cl)cc2C)cc1 [Example 23, N-[2-methyl-4-chlorobenzoyl]-4-methylphenylsulfonamide]",15.9
16,"O=C(NS(=O)(=O)c1ccc(Br)c(Br)c1)c1ccc(Cl)cc1Cl [Example 24, N-[2,4-dichlorobenzoyl]-3,4-dibromophenylsulfonamide]",37.1
17,"O=C(NS(=O)(=O)c1cccc(C(F)(F)F)c1)c1ccc(Cl)cc1Cl [Example 25, N-[2,4-dichlorobenzoyl]-3-trifluoromethyl-phenylsulfonamide]",9.6
18,"O=C(NS(=O)(=O)c1cccc(F)c1)c1ccc(Cl)cc1Cl [Example 26, N-[2,4-dichlorobenzoyl]-3-fluorophenylsulfonamide]",6.1
19,"COC(=O)c1cc(S(=O)(=O)NC(=O)c2ccc(Cl)cc2Br)ccc1OC [Example 32, N-[2-bromo-4-chlorobenzoyl]-3-methoxycarbonyl-4-methoxyphenylsulfonamide]",7.8
20,"CC(C)(C)c1ccc(S(=O)(=O)NC(=O)c2ccc(Cl)cc2Br)cc1 [Example 33, N-[2-bromo-4-chlorobenzoyl]-4-tert-butylphenylsulfonamide]",7.8
21,"COC(=O)c1cc(S(=O)(=O)NC(=O)c2ccc(Br)cc2Br)ccc1OC [Example 34, N-[2,4-dibromobenzoyl]-3-methoxycarbonyl-4-methoxyphenylsulfonamide]",16.5
22,"Cc1cc(Br)ccc1C(=O)NS(=O)(=O)c1ccc(F)c(Cl)c1 [Example 35, N-[2-methyl-4-bromobenzoyl]-3-chloro-4-fluorophenylsulfonamide]",17
23,"Cc1cc(Br)ccc1C(=O)NS(=O)(=O)c1ccc(I)cc1 [Example 36, N-[2-methyl-4-bromobenzoyl]-4-iodophenylsulfonamide]",28.4
24,"Cc1cccc(S(=O)(=O)NC(=O)c2ccc(Br)cc2C)c1 [Example 37, N-[2-methyl-4-bromobenzoyl]-3-methylphenylsulfonamide]",15.5

row,Structure (SMILES),IC50 [µM]
1,"O=C(NS(=O)(=O)c1ccc(I)cc1)c1ccc(Br)cc1Br [Example 38, N-[2,4-dibromobenzoyl]-4-iodophenylsulfonamide]",13.9
2,"COc1ccc(S(=O)(=O)NC(=O)c2ccc(Cl)cc2C)cc1 [Example 41, N-[2-methyl-4-chlorobenzoyl]-4-methoxyphenylsulfonamide]",14.5
3,"Cc1cc(Cl)ccc1C(=O)NS(=O)(=O)c1ccc(F)cc1 [Example 42, N-[2-methyl-4-chlorobenzoyl]-4-fluorophenylsulfonamide]",3.3
4,"COc1cc(C)ccc1S(=O)(=O)NC(=O)c1ccc(Cl)cc1C [Example 44, N-[2-methyl-4-chlorobenzoyl]-2-methoxy-4-methylphenylsulfonamide]",18.7
5,"Cc1ccc(S(=O)(=O)NC(=O)c2ccc(Cl)cc2C)cc1Cl [Example 45, N-[2-methyl-4-chlorobenzoyl]-3-chloro-4-methylphenylsulfonamide]",20.7
6,"O=C(NS(=O)(=O)c1ccc(F)cc1)c1ccc(C(F)(F)F)cc1C(F)(F)F [Example 46, N-[2,4-bis-trifluoromethylbenzoyl]-4-fluorophenylsulfonamide]",4.8
7,"COc1ccc(S(=O)(=O)NC(=O)c2ccc(C(F)(F)F)cc2C(F)(F)F)cc1 [Example 47, N-[2,4-bis-trifluoromethylbenzoyl]-4-methoxyphenylsulfonamide]",8.7
8,"O=C(NS(=O)(=O)c1ccc(Br)cc1)c1ccc(C(F)(F)F)cc1C(F)(F)F [Example 49, N-[2,4-bis-trifluoromethylbenzoyl]-4-bromophenylsulfonamide]",14.7
9,"Cc1cccc(S(=O)(=O)NC(=O)c2ccc(C(F)(F)F)cc2C(F)(F)F)c1 [Example 50, N-[2,4-bis-trifluoromethylbenzoyl]-3-methylphenylsulfonamide]",10.5
10,"Cc1cc(Cl)ccc1C(=O)NS(=O)(=O)c1ccc(OC(F)(F)F)cc1 [Example 51, N-[2-methyl-4-chlorobenzoyl]-4-trifluoromethoxy-phenylsulfonamide]",26.7
11,"O=C(NS(=O)(=O)c1ccc(F)c(F)c1)c1ccc(C(F)(F)F)cc1C(F)(F)F [Example 53, N-[2,4-bis-trifluoromethylbenzoyl]-3,4-difluorophenyl-sulfonamide]",11.2
12,"Cc1cccc(S(=O)(=O)NC(=O)c2ccc(Cl)cc2C)c1 [Example 55, N-[2-methyl-4-chlorobenzoyl]-3-methylphenylsulfonamide]",9.5
13,"Cc1cc(Cl)ccc1C(=O)NS(=O)(=O)c1ccc(I)cc1 [Example 56, N-[2-methyl-4-chlorobenzoyl]-4-iodophenylsulfonamide]",16.8
14,"Cc1cc(Cl)ccc1C(=O)NS(=O)(=O)c1ccc(F)c(F)c1 [Example 57, N-[2-methyl-4-chlorobenzoyl]-3,4-difluorophenyl-sulfonamide]",5
15,"Cc1ccc(C(=O)NS(=O)(=O)c2ccc(F)c(Cl)c2)c(Cl)c1 [Example 59, N-[2-chloro-4-methylbenzoyl]-3-chloro-4-fluorophenyl-sulfonamide]",15
16,"Cc1cc(Cl)ccc1C(=O)NS(=O)(=O)c1ccccc1 [Example 60, N-[2-methyl-4-chlorobenzoyl]-phenylsulfonamide]",6.6
17,"CCSc1ccc(S(=O)(=O)NC(=O)c2ccc(Br)cc2C)cc1 [Example 61, N-[2-methyl-4-bromobenzoyl]-4-ethylthiophenyl-sulfonamide]",14.2
18,"CCSc1ccc(S(=O)(=O)NC(=O)c2ccc(Cl)cc2Cl)cc1 [Example 62, N-[2,4-dichlorobenzoyl]-4-ethylthiophenyl-sulfonamide]",19.3
19,"CC(C)c1ccc(S(=O)(=O)NC(=O)c2ccc(C(F)(F)F)cc2C(F)(F)F)cc1 [Example 63, N-[2,4-bis-trifluoromethylbenzoyl]-4-isopropylphenyl-sulfonamide]",24.7
20,"CC(C)c1ccc(S(=O)(=O)NC(=O)c2ccc(Br)cc2Cl)cc1 [Example 64, N-[2-chloro-4-bromobenzoyl]-4-isopropylphenyl-sulfonamide]",18.2
21,"CCc1ccc(S(=O)(=O)NC(=O)c2ccc(Cl)cc2C)cc1 [Example 70, N-[2-methyl-4-chlorobenzoyl]-4-ethylphenylsulfonamide]",16.9
22,"CC(C)c1ccc(S(=O)(=O)NC(=O)c2ccc(Cl)cc2Br)cc1 [Example 73, N-[2-bromo-4-chlorobenzoyl]-4-isopropylphenyl-sulfonamide]",8.3
23,"Cc1ccc(S(=O)(=O)NC(=O)c2ccc(C)cc2C(F)(F)F)cc1 [Example 79, N-[2-trifluoromethyl-4-methylbenzoyl]-4-methylphenyl-sulfonamide]",5.2
24,"COc1cccc(S(=O)(=O)NC(=O)c2ccc(Cl)cc2Cl)c1 [Example 80, N-[2,4-dichlorobenzoyl]-3-methoxyphenyl-sulfonamide]",12.3
